Some results are limits rather than exact numbers.

For orientation: Kd means a measure of binding affinity in units of concentration. The low end stands for higher affinity, the high end for lower affinity.

CRBN truncate (318-426), sequence (Q96SW2 318-426): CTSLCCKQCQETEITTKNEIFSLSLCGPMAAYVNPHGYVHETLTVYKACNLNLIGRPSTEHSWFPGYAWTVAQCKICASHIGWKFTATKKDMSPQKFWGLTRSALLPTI

This test concerns the target CRBN truncate (318-426) (Homo sapiens (Human), UniProt Q96SW2). Briefly: Measurement of molecular interactions using surface plasmon resonance (SPR), Biacore T200. It is filed as binding. Particulars: 25° C., immobilized CRBN truncate, upper limit of measurement 200 μM. As to the method: The instrument used was the Biacore T200 (manufactured by Cytiva). The CRBN truncate (318-426) was obtained by expressing a construct with an Avi-tag added at the C-terminus. The sensor chip used was Sensor Chip SA (manufactured by Cytiva). The CRBN truncate was immobilized using the affinity between SA (streptavidin) on the sensor chip and the Avi-tag. The running buffer was a mixture of 10 mM HEPES pH 7.5, 150 mM NaCl, 1 mM TCEP, 0.005% Tween 20, and 2% DMSO. […] Contact time and dissociation time were set at 60 seconds and 120 seconds, respectively.
A general note: Surface plasmon resonance follows binding to a sensor surface in real time, without labels.
On to `CC(C)(C)OC(=O)COc1cccc(C(=O)NC2CCCC(=O)NC2=O)n1` (stereo not drawn) [Example 69, tert-Butyl 2-(6-((2,7-dioxoazepan-3-yl)carbamoyl)pyridin-2-yl) oxyacetate], for which the Kd fell in the range of 50 to 100 µM.
On to `Nc1cccc(C2CCCC(=O)NC2=O)c1` (stereo not drawn) [Example 70, 3-(3-Aminophenyl) azepane-2,7-dione], for which the Kd was ≥ 100 µM.
As to `CC(=O)Nc1cccc(C2CCCC(=O)NC2=O)c1` (stereo not drawn) [Example 71, N-[3-(2,7-Dioxoazepan-3-yl)phenyl]acetamide], the dissociation constant (Kd) was ≥ 100 µM.
As for `O=C1CCCC2(CCN(c3nc4ccc([N+](=O)[O-])cc4s3)C2)C(=O)N1` (stereo not drawn) [Example 72, 2-(6-Nitro-1,3-benzothiazol-2-yl)-2,7-diazaspiro [4.6]undecane-6,8-dione], the figure is < 50 µM; as for `CCOC(=O)c1ccc2nc(N3CCC4(CCCC(=O)NC4=O)C3)sc2c1` (stereo not drawn) [Example 73, Ethyl 2-(6,8-dioxo-2,7-diazaspiro[4.6]undecane-2-yl)-1,3-benzothiazole-6-carboxylate], < 50 µM.
The value for `O=C1CCCC2(CCN(c3nc4ncccc4s3)C2)C(=O)N1` (stereo not drawn) [Example 74, 2-([1,3]thiazolo[4,5-b]pyridin-2-yl)-2,7-diazaspiro[4.6]undecane-6,8-dione] was ≥ 100 µM; that for `O=C1CCCC2(CCN(c3ccc([N+](=O)[O-])cn3)C2)C(=O)N1` (stereo not drawn) [Example 75, 2-(5-nitro-2-pyridyl)-2,7-diazaspiro[4.6]undecane-6,8-dione] was < 50 µM.
The value for `O=Cc1ccc(N2CCC3(CCCC(=O)NC3=O)C2)nc1` (stereo not drawn) [Example 76, 6-(6,8-Dioxo-2,7-diazaspiro[4.6]undecane-2-yl)pyridine-3-carbaldehyde] was ≥ 100 µM.
In the case of `O=C1CCCC2(CCN(c3ncc([N+](=O)[O-])cc3Cl)C2)C(=O)N1` (stereo not drawn) [Example 77, 2-(3-chloro-5-nitro-2-pyridyl)-2,7-diazaspiro[4.6]undecane-6,8-dione], the Kd was < 50 µM.
As for `O=C1CCCC2(CCN(c3ncc([N+](=O)[O-])cc3C(F)(F)F)C2)C(=O)N1` (stereo not drawn) [Example 79, 2-(5-nitro-3-(trifluoromethyl)-2-pyridyl)-2,7-diazaspiro[4.6]undecane-6,8-dione], the figure is ≥ 100 µM; as for `O=C1CCCC2(CCN(c3ccc([N+](=O)[O-])cc3)C2)C(=O)N1` (stereo not drawn) [Example 80, 2-(4-Nitrophenyl)-2,7-diazaspiro[4.6]undecane-6,8-dione], < 50 µM; as for `Cc1cc(N2CCC3(CCCC(=O)NC3=O)C2)ccc1[N+](=O)[O-]` (stereo not drawn) [Example 81, 2-(3-Methyl-4-nitrophenyl)-2,7-diazaspiro[4.6]undecane-6,8-dione], ≥ 100 µM.
`Cc1cc([N+](=O)[O-])ccc1N1CCC2(CCCC(=O)NC2=O)C1` (stereo not drawn) [Example 82, 2-(2-Methyl-4-nitrophenyl)-2,7-diazaspiro[4.6]undecane-6,8-dione] displayed an equilibrium dissociation constant (Kd) of 50 to 100 µM.
Regarding `O=C1CCCC2(CCN(c3ccc([N+](=O)[O-])cc3F)C2)C(=O)N1` (stereo not drawn) [Example 83, 2-(2-Fluoro-4-nitrophenyl)-2,7-diazaspiro[4.6]undecane-6,8-dione], the dissociation constant Kd was < 50 µM.
The value for `O=C1CCCC2(CCN(c3ccc([N+](=O)[O-])cc3Cl)C2)C(=O)N1` (stereo not drawn) [Example 84, 2-(2-Chloro-4-nitrophenyl)-2,7-diazaspiro[4.6]undecane-6,8-dione] was < 50 µM; that for `Nc1ccc2nc(N3CCC4(CCCC(=O)NC4=O)C3)sc2c1` (stereo not drawn) [Example 85, 2-(6-Amino-1,3-benzothiazol-2-yl)-2,7-diazaspiro[4.6]undecane-6,8-dione] was 50 to 100 µM; that for `Nc1ccc(N2CCC3(CCCC(=O)NC3=O)C2)c(F)c1` (stereo not drawn) [Example 86, 2-(4-Amino-2-fluorophenyl)-2,7-diazaspiro[4.6]undecane-6,8-dione] was ≥ 100 µM.
For the compound `CC(=O)Nc1ccc2nc(N3CCC4(CCCC(=O)NC4=O)C3)sc2c1` (stereo not drawn) [Example 87, N-[2-(6,8-dioxo-2,7-diazaspiro[4.6]undecan-2-yl)-1,3-benzothiazol-6-yl]acetamide], the dissociation constant Kd is ≥ 100 µM.

The values are drawn from patent US20250388593A1 (MITSUBISHI TANABE PHARMA CORPORATION, priority 2023, published 2025).
